Test results: ChEMBL document CHEMBL1142714, “Synthesis and pharmacological evaluation of huprine-tacrine heterodimers: subnanomolar dual binding site acetylcholinesterase inhibitors” (J Med Chem, 2005)

What was measured:
Acetylcholinesterase [1] = target: Acetylcholinesterase (Homo sapiens, UniProt P22303)
Description: Inhibitory concentration against Acetylcholinesterase from human erythrocytes

Cholinesterase = Cholinesterase (Homo sapiens, UniProt P06276)
Description: Inhibitory concentration against Butyrylcholinesterase from human erythrocytes

Acetylcholinesterase [2] = target: T1, Acetylcholinesterase (Bos taurus, UniProt P23795); assay: Inhibitory concentration against Acetylcholinesterase from bovine erythrocytes after 45 min incubation
T1 sequence (P23795 whole entry): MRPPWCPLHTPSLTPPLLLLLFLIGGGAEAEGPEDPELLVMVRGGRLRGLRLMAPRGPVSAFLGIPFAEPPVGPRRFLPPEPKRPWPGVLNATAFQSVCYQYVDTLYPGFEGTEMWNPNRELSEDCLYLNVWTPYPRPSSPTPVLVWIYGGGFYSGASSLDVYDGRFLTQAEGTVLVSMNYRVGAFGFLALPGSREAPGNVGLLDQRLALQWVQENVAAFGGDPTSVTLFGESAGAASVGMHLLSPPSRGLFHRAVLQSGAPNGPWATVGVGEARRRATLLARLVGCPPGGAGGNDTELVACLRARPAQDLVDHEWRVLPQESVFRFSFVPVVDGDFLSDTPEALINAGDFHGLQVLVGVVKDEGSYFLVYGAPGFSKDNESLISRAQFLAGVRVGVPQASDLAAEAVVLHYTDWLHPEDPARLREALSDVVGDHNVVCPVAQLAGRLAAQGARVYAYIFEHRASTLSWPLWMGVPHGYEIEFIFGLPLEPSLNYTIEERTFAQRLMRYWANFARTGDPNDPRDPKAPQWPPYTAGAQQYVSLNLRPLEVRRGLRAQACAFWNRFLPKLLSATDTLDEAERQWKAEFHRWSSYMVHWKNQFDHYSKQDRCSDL

Acetylcholinesterase [3] = target: T1, Acetylcholinesterase

Sequence of Cholinesterase (P06276 whole entry): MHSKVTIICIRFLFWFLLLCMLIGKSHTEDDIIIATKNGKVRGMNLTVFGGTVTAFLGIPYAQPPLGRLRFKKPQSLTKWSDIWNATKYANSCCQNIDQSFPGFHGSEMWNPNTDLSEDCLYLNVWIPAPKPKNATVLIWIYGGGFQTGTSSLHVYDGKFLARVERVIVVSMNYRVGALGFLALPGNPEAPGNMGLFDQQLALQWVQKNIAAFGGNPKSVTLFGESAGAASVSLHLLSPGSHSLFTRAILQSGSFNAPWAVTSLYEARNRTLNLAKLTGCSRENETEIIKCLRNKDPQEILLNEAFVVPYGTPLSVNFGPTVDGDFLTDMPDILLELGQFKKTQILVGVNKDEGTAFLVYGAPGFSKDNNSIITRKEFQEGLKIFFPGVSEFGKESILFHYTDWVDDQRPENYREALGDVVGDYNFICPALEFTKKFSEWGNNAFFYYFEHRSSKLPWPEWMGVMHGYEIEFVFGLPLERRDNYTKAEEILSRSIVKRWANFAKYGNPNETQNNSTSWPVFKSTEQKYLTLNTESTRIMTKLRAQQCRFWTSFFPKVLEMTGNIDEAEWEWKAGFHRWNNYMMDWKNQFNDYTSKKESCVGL
Sequence of Acetylcholinesterase (Homo sapiens, UniProt P22303) (P22303 whole entry): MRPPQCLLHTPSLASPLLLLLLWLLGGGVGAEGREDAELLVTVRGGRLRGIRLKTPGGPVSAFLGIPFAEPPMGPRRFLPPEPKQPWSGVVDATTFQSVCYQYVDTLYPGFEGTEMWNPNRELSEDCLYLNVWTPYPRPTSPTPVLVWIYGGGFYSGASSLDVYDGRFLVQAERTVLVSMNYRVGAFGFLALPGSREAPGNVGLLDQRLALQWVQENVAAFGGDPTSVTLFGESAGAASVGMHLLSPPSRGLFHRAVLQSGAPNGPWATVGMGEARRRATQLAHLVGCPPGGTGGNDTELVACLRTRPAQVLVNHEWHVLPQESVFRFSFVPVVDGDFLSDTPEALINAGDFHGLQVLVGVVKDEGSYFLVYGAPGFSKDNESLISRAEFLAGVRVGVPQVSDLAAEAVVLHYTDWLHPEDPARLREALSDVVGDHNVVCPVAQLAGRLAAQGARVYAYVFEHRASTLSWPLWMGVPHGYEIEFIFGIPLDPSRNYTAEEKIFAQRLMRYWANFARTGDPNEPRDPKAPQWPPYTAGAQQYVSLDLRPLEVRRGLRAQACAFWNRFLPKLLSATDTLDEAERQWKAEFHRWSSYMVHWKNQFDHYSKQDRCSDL

CC1=C[C@@H]2Cc3nc4cc(Cl)ccc4c(NCCCN(C)CCCCNc4c5c(nc6cc(Cl)ccc46)CCCC5)c3[C@H](C1)C2
IC50 (Acetylcholinesterase [1]): 0.29 nM | IC50 (Cholinesterase): 31.1 nM | IC50 (Acetylcholinesterase [2]): 0.44 nM | IC50 (Acetylcholinesterase [3]): 0.54 nM

CC1=C[C@@H]2Cc3nc4cc(Cl)ccc4c(NCCCN(C)CCCCNc4c5c(nc6ccccc46)CCCC5)c3[C@H](C1)C2
IC50 (Acetylcholinesterase [1]): 0.32 nM | IC50 (Cholinesterase): 16.4 nM | IC50 (Acetylcholinesterase [2]): 0.26 nM | IC50 (Acetylcholinesterase [3]): 0.33 nM

CC1=CC2Cc3nc4cc(Cl)ccc4c(NCCCCCCCCNc4c5c(nc6ccccc46)CCCC5)c3C(C1)C2 (stereo unspecified)
IC50 (Acetylcholinesterase [1]): 0.33 nM | IC50 (Cholinesterase): 4.74 nM | IC50 (Acetylcholinesterase [2]): 0.65 nM | IC50 (Acetylcholinesterase [3]): 1.26 nM

CCC1=CC2Cc3nc4ccccc4c(NCCCCCCCCNc4c5c(nc6ccccc46)CCCC5)c3C(C1)C2 (stereo unspecified)
IC50 (Acetylcholinesterase [1]): 0.82 nM | IC50 (Cholinesterase): 5.55 nM | IC50 (Acetylcholinesterase [2]): 1.67 nM | IC50 (Acetylcholinesterase [3]): 2.19 nM

CC1=CC2Cc3nc4cc(Cl)ccc4c(NCCCCCCCNc4c5c(nc6cc(Cl)ccc46)CCCC5)c3C(C1)C2 (stereo unspecified)
IC50 (Acetylcholinesterase [1]): 0.33 nM | IC50 (Cholinesterase): 7.38 nM | IC50 (Acetylcholinesterase [2]): 1.6 nM | IC50 (Acetylcholinesterase [3]): 1.97 nM

CC1=CC2Cc3nc4cc(Cl)ccc4c(NCCCCCCCCNc4c5c(nc6cc(Cl)ccc46)CCCC5)c3C(C1)C2 (stereo unspecified)
IC50 (Acetylcholinesterase [1]): 0.4 nM | IC50 (Cholinesterase): 7.8 nM | IC50 (Acetylcholinesterase [2]): 1.31 nM | IC50 (Acetylcholinesterase [3]): 2.09 nM

CC1=CC2Cc3nc4cc(Cl)ccc4c(NCCCCCCNc4c5c(nc6cc(Cl)ccc46)CCCC5)c3C(C1)C2 (stereo unspecified)
IC50 (Acetylcholinesterase [1]): 0.45 nM | IC50 (Cholinesterase): 14 nM | IC50 (Acetylcholinesterase [2]): 0.8 nM | IC50 (Acetylcholinesterase [3]): 1.06 nM

CC1=CC2Cc3nc4cc(Cl)ccc4c(NCCCCCCNc4c5c(nc6ccccc46)CCCC5)c3C(C1)C2 (stereo unspecified)
IC50 (Acetylcholinesterase [1]): 0.5 nM | IC50 (Cholinesterase): 7.69 nM | IC50 (Acetylcholinesterase [2]): 0.27 nM | IC50 (Acetylcholinesterase [3]): 0.4 nM

CC1=CC2Cc3nc4cc(Cl)ccc4c(NCCCCCCCNc4c5c(nc6ccccc46)CCCC5)c3C(C1)C2 (stereo unspecified)
IC50 (Acetylcholinesterase [1]): 0.34 nM | IC50 (Cholinesterase): 6.7 nM | IC50 (Acetylcholinesterase [2]): 0.36 nM | IC50 (Acetylcholinesterase [3]): 0.48 nM
